Reference: PubChem BioAssay (NCI)
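Growth conditions: 96-well plates. Treatment: test compound, 48 hours, 5 concentrations. Analysis: linear interpolation between bracketing concentrations; unreached endpoints set to highest concentration. GI50 is the concentration that inhibits growth by half. TGI: total growth inhibition.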

Tests used:
Assay in all cases: NCI tumour cell line growth inhibition, 48 h
[1] = test system: CAKI-1 renal
[2] = test system: IGROV1 ovarian
[3] = test system: NCI-H460 lung
[4] = test system: OVCAR-3 ovarian
[5] = test system: SF-539 CNS
[6] = test system: SN12C renal
[7] = test system: TK-10 renal
[8] = test system: UO-31 renal

Row | SMILES | GI50 [1] [µM] | TGI [1] [µM] | GI50 [2] [µM] | TGI [2] [µM] | GI50 [3] [µM] | TGI [3] [µM] | GI50 [4] [µM] | TGI [4] [µM] | GI50 [5] [µM] | TGI [5] [µM] | GI50 [6] [µM] | TGI [6] [µM] | GI50 [7] [µM] | TGI [7] [µM] | GI50 [8] [µM] | TGI [8] [µM]
1 | CS[C@@]1(C(=O)Nc2ccc3[nH]nc(-c4ccc(OC(C)C)nc4)c3c2)CCN(CC(=O)N2CC=C(c3ccc(-c4ncn(C)n4)cc3)CC2)C1 | > 100 | > 100 | 0.271 | > 100 | > 100 | > 100 | > 100 | > 100 | > 100 | > 100 | > 100 | > 100 | 0.237 | > 100 | 1.01 | > 100
2 | Oc1[nH]c2ccc(Cl)cc2c1/C=c1/ccc2c(c1)N=C(c1cc(F)cc(F)c1)N=2 | 5.1 | > 100 | 6.21 | > 100 |  |  | 2.26 | 5.73 | 8.7 | > 100 | 5.41 | > 100 | 7.22 | > 100 | 87.3 | > 100
3 | C[C@@H](Oc1cc(-c2cnn(C3CC4(CCCNC4)C3)c2)cnc1N)c1c(Cl)ccc(F)c1Cl (some centres not stated) | 2.08 | 6.62 | 2.99 | 13.6 | 0.826 | 2.53 | 2.02 | 5.08 | 1.59 | 3.02 | 1.5 | 8.97 | 2.02 | 5.47 | 1.76 | 3.9
4 | N#CC[C@H](C1CCCC1)n1cc(-c2ncnc3[nH]ccc23)cn1 | 7.91 | > 100 | 34 | > 100 | 14.4 | > 100 | 24.2 | > 67.3 | 16.7 | 62.7 | 22.1 | > 100 | 13.2 | > 100 | 4.53 | 82
5 | O=C(/C=C/c1cccc(B(O)O)c1)c1cccc(B(O)O)c1 | 2.85 | 12.6 | 2.52 | 6.65 | 1.99 | 4.53 | 0.828 | 2.38 | 1.84 | 3.73 | 1.7 | 3.61 | 2.57 | 6.47 | 1.71 | 3.36
6 | CCN1C(=O)N(CC)C2C1NN=c1s/c(=C\c3ccccc3)c(=O)n12 (configuration not stated) | 0.0717 | > 100 | 0.298 | > 100 | 0.21 | > 100 | 0.0561 | 0.354 | 0.106 | 0.554 | 0.511 | > 100 | 32.8 | > 100 | 0.49 | > 100
7 | CC(C)N(C[C@H]1O[C@@H](n2cnc3c(N)ncnc32)[C@H](O)[C@@H]1O)C1CC(CCc2nc3ccc(C(C)(C)C)cc3[nH]2)C1 (some centres not stated) | > 100 | > 100 | > 72.4 | > 100 | > 100 | > 100 | > 100 | > 100 | > 100 | > 100 | > 100 | > 100 | > 100 | > 100 | > 100 | > 100
8 | CCOC(=O)C(Cc1ccc(OC)cc1)C(=O)OCC | 4.67 | 16.6 | 3.46 | 14.3 | 4.12 | 15.1 | 3.59 | 11.6 | 2.92 | 9.43 | 5.77 | 21.7 | 8.22 | 26.2 | 5.63 | 19.7
9 | Cc1c(N2C(=O)/C(=C\c3ccc(N(C)C)cc3)N=C2c2ccccc2)c(=O)n(-c2ccccc2)n1C | > 100 | > 100 | 24.1 | > 100 | 62.9 | > 100 | > 70.6 | > 100 | > 100 | > 100 | > 100 | > 100 | > 100 | > 100 | 40.6 | > 100
10 | Nc1cccc2nsnc12 |  | > 100 |  | > 100 |  | > 100 |  | > 100 |  | > 100 |  | > 100 |  | > 100 |  | > 100
11 | CN1CCN(c2ccc3nc4c(nc3c2C(F)(F)F)C(=O)c2ncccc2C4=O)CC1 | 1.2 | 2.75 | 1.41 | 3.07 | 0.273 | 1.32 | 0.379 | 1.41 | 1.51 | 2.85 | 1.44 | 2.91 | 2.21 | 5.3 | 1.33 | 2.84
12 | CC[C@H](C)[C@H](NC(=O)C12CC(NC(C)=O)(C1)C2)C(=O)N(C)[C@H](C[C@@H](OC(C)=O)c1nc(C(=O)N[C@@H](Cc2ccccc2)C[C@H](C)C(=O)OC)cs1)C(C)C | 11.2 | > 16.7 | 0.502 | > 16.7 | 0.32 | > 16.7 | 0.0494 | 0.569 | 0.438 | 1.15 | 0.937 | > 16.7 | > 4.97 | > 16.7 | > 8.2 | > 16.7
13 | COc1ccc(C2C3=C(COC3=O)N(CCO)c3cc4c(cc32)OCCO4)cc1OC (configuration not stated) | 4.03 | > 50 | 1.91 | 14.9 | 1.84 | > 18.9 | 1.11 | 3 | 1.69 | > 18 | > 15.7 | > 50 | > 10.2 | > 36.3 | 4.09 | > 50
14 | O=C(Nc1ccc(S(=O)(=O)NC2CCCCCC2)cc1)C(c1ccccc1)S(=O)(=O)c1ccc(F)cc1 (configuration not stated) |  |  | 0.237 | 2.89 | 0.0367 | 1.1 | 0.367 | 2.85 | 0.389 | 1.88 | 0.371 | 1.81 | 0.331 | 3.66 | 0.202 | 3.52
